Assay results published in patent US11807625B2, “Capsid inhibitors for the prevention of HIV” (Gilead Sciences, Inc., priority 2019, dated 2023).
“And” between values parts separate entries of the source, which are not always exact repeats. Equal entries are not always repeated.

Assay: PK of compound of Formula (Ia) after single subcutaneous dose of solution formulations in beagle dogs
Format: in vivo
Conditions: individual dogs
Experimental: Formulations containing the compound of Formula (Ia), or a pharmaceutically acceptable salt thereof, were prepared as solutions and optionally administered subcutaneously or intramuscularly to rats, rabbits, and/or dogs.
(§1) A solution of about 400 mg/mL of the compound of Formula (Ia) having 17.00 w/w % water, 36.40 w/w % PEG 300, 35.20 w/w % of a sodium salt of a compound of Formula (Ia), 5.00 w/w % ethanol, and 6.40 w/w % poloxamer 188 was prepared. The solution was administered subcutaneously to male beagle dogs at a dose level of about 12 mg/kg and male Wistar Han rats at a dose level of about 50 mg/kg. The pharmacokinetic profiles were determined, and the results for dogs are summarized in Table and Table, while the results for rats are summarized in Table and Table below.
as §1, with “500” for “400”, “14.06” for “17.00”, “30.12” for “36.40”
A solution of about 300 mg/mL of the compound of Formula (Ia) having 23.33 w/w % water, 48.99 w/w % PEG 300, 26.47 w/w % of a sodium salt of a compound of Formula (Ia), and 1.21 w/w % poloxamer 188 was prepared. The solution was administered subcutaneously to male beagle dogs at a dose level of about 6 mg/kg and male Wistar Han rats at a dose level of about 50 mg/kg. The pharmacokinetic profiles were determined, and the results for dogs are summarized in Table and Table, while the results for rats are summarized in Table and Table below.
as §1, with “18.80” for “17.00”, “40.25” for “36.40”, “34.38” for “35.20”, “1.57” for “6.40”
as §1, with “500” for “400”, “16.29” for “17.00”, “34.88” for “36.40”, “41.92” for “35.20”, “1.91” for “6.40”
as §1, with “20.90” for “17.00”, “44.72” for “36.40”, “and 34.38” for “35.20”, “(Ia)” for “(Ia), 5.00 w/w % ethanol, and 6.40 w/w % poloxamer 188”
A solution of about 400 mg/mL of the compound of Formula (Ia) having 19.90 w/w % water, 42.59 w/w % PEG 300, 34.38 w/w % of a sodium salt of a compound of Formula (Ia), and 3.13 w/w % poloxamer 188 was prepared. The solution was administered subcutaneously to male beagle dogs at a dose level of about 12 mg/kg and male Wistar Han rats at a dose level of about 50 mg/kg. […]

Question: For `CC(C)(C#Cc1ccc(-c2ccc(Cl)c3c(NS(C)(=O)=O)nn(CC(F)(F)F)c23)c([C@H](Cc2cc(F)cc(F)c2)NC(=O)Cn2nc(C(F)(F)F)c3c2C(F)(F)[C@@H]2C[C@H]32)n1)S(C)(=O)=O` [compound of Formula (Ia)], which Plasma concentration (0 h, SC 6 mg/kg, solution V, 300 mg/mL) is on record?
Answer: Its Plasma concentration is “BLQ”.

Question: And the Plasma concentration (0 h, SC 12 mg/kg, solution T, 400 mg/mL)?
Answer: The Plasma concentration was “BLQ”.

Question: What about the Plasma concentration (0 h, SC 12 mg/kg, solution U, 500 mg/mL) of the same molecule?
Answer: The Plasma concentration was “BLQ”.

Question: And the Plasma concentration (1.00 h, SC 6 mg/kg, solution V, 300 mg/mL)?
Answer: The Plasma concentration was “BLQ”.

Question: What about the Plasma concentration (1.00 h, SC 12 mg/kg, solution T, 400 mg/mL, 12 mg/kg) of the same molecule?
Answer: The Plasma concentration was 10.5 nM and 4.75 nM and 2.96 nM.

Question: And the Plasma concentration (1.00 h, SC 12 mg/kg, solution U, 500 mg/mL, 12 mg/kg)?
Answer: The Plasma concentration was 4.85 nM and 2.05 nM and 9.86 nM.

Question: What about the Plasma concentration (3.00 h, SC 6 mg/kg, solution V, 300 mg/mL, 6 mg/kg) of the same molecule?
Answer: The Plasma concentration was “BLQ and 3.25 nM”.

Question: And the Plasma concentration (3.00 h, SC 12 mg/kg, solution T, 400 mg/mL, 12 mg/kg)?
Answer: The Plasma concentration was 26.1 nM and 18.6 nM and 9.64 nM.

Question: What about the Plasma concentration (3.00 h, SC 12 mg/kg, solution U, 500 mg/mL, 12 mg/kg) of the same molecule?
Answer: The Plasma concentration was 22.9 nM and 7.00 nM and 36.1 nM.

Question: And the Plasma concentration (8.00 h, SC 6 mg/kg, solution V, 300 mg/mL, 6 mg/kg)?
Answer: Its Plasma concentration is 11.6 nM and 11.4 nM.

Question: And the Plasma concentration (8.00 h, SC 12 mg/kg, solution T, 400 mg/mL, 12 mg/kg)?
Answer: The Plasma concentration was 84.5 nM and 50.3 nM.

Question: What about the Plasma concentration (8.00 h, SC 12 mg/kg, solution U, 500 mg/mL, 12 mg/kg) of the same molecule?
Answer: The Plasma concentration was 68.7 nM and 26.4 nM and 88.4 nM.

Question: And the Plasma concentration (24.0 h, SC 6 mg/kg, solution V, 300 mg/mL, 6 mg/kg)?
Answer: Its Plasma concentration is 25.7 nM and 22.6 nM.

Question: And the Plasma concentration (24.0 h, SC 12 mg/kg, solution T, 400 mg/mL, 12 mg/kg)?
Answer: The Plasma concentration was 254 nM and 187 nM.

Question: What about the Plasma concentration (24.0 h, SC 12 mg/kg, solution U, 500 mg/mL, 12 mg/kg) of the same molecule?
Answer: Its Plasma concentration is 101 nM and 92.7 nM and 207 nM.

Question: And the Plasma concentration (48.0 h, SC 6 mg/kg, solution V, 300 mg/mL, 6 mg/kg)?
Answer: The Plasma concentration was 27.9 nM and 29.4 nM.

Question: And the Plasma concentration (48.0 h, SC 12 mg/kg, solution T, 400 mg/mL, 12 mg/kg)?
Answer: Its Plasma concentration is 166 nM and 380 nM and 179 nM.

Question: What about the Plasma concentration (48.0 h, SC 12 mg/kg, solution U, 500 mg/mL, 12 mg/kg) of the same molecule?
Answer: The Plasma concentration was 94.1 nM and 94.8 nM.

Question: What about the Plasma concentration (72.0 h, SC 6 mg/kg, solution V, 300 mg/mL, 6 mg/kg) of the same molecule?
Answer: Its Plasma concentration is 29.6 nM and 31.5 nM.

Question: What about the Plasma concentration (72.0 h, SC 12 mg/kg, solution T, 400 mg/mL, 12 mg/kg) of the same molecule?
Answer: The Plasma concentration was 105 nM and 452 nM and 112 nM.

Question: What about the Plasma concentration (72.0 h, SC 12 mg/kg, solution U, 500 mg/mL, 12 mg/kg) of the same molecule?
Answer: Its Plasma concentration is 62.3 nM and 64.0 nM.

Question: And the Plasma concentration (96.0 h, SC 6 mg/kg, solution V, 300 mg/mL, 6 mg/kg)?
Answer: The Plasma concentration was 28.8 nM and 29.6 nM.

Question: And the Plasma concentration (96.0 h, SC 12 mg/kg, solution T, 400 mg/mL, 12 mg/kg)?
Answer: The Plasma concentration was 89.8 nM and 523 nM and 83.8 nM.

Question: What about the Plasma concentration (96.0 h, SC 12 mg/kg, solution U, 500 mg/mL, 12 mg/kg) of the same molecule?
Answer: Its Plasma concentration is 45.7 nM and 62.6 nM.

Question: What about the Plasma concentration (168 h, SC 6 mg/kg, solution V, 300 mg/mL, 6 mg/kg) of the same molecule?
Answer: The Plasma concentration was 34.5 nM and 41.4 nM.

Question: And the Plasma concentration (168 h, SC 12 mg/kg, solution T, 400 mg/mL, 12 mg/kg)?
Answer: The Plasma concentration was 105 nM and 408 nM and 151 nM.

Question: What about the Plasma concentration (168 h, SC 12 mg/kg, solution U, 500 mg/mL, 12 mg/kg) of the same molecule?
Answer: Its Plasma concentration is 55.9 nM and 49.6 nM and 187 nM.

Question: And the Plasma concentration (336 h, SC 12 mg/kg, solution T, 400 mg/mL, 12 mg/kg)?
Answer: Its Plasma concentration is 353 nM and 250 nM.

Question: What about the Plasma concentration (336 h, SC 12 mg/kg, solution U, 500 mg/mL, 12 mg/kg) of the same molecule?
Answer: The Plasma concentration was 155 nM and 187 nM.

Question: And the Plasma concentration (504 h, SC 12 mg/kg, solution T, 400 mg/mL, 12 mg/kg)?
Answer: The Plasma concentration was 229 nM and 199 nM.

Question: And the Plasma concentration (504 h, SC 12 mg/kg, solution U, 500 mg/mL, 12 mg/kg)?
Answer: The Plasma concentration was 166 nM and 129 nM.

Question: What about the Plasma concentration (672 h, SC 12 mg/kg, solution T, 400 mg/mL, 12 mg/kg) of the same molecule?
Answer: The Plasma concentration was 106 nM and 90.6 nM.

Question: And the Plasma concentration (672 h, SC 12 mg/kg, solution U, 500 mg/mL, 12 mg/kg)?
Answer: Its Plasma concentration is 106 nM and 101 nM and 38.7 nM.

Question: And the Plasma concentration (840 h, SC 12 mg/kg, solution T, 400 mg/mL, 12 mg/kg)?
Answer: Its Plasma concentration is 139 nM and 69.8 nM and 63.7 nM.

Question: What about the Plasma concentration (840 h, SC 12 mg/kg, solution U, 500 mg/mL, 12 mg/kg) of the same molecule?
Answer: The Plasma concentration was 107 nM and 69.7 nM and 41.2 nM.

Question: What about the Plasma concentration (1008 h, SC 12 mg/kg, solution T, 400 mg/mL, 12 mg/kg) of the same molecule?
Answer: The Plasma concentration was 71.1 nM and 74.2 nM.

Question: What about the Plasma concentration (1008 h, SC 12 mg/kg, solution U, 500 mg/mL, 12 mg/kg) of the same molecule?
Answer: Its Plasma concentration is 83.5 nM and 61.1 nM and 30.4 nM.

Question: What about the Plasma concentration (1344 h, SC 12 mg/kg, solution T, 400 mg/mL, 12 mg/kg) of the same molecule?
Answer: The Plasma concentration was 35.6 nM and 30.6 nM.

Question: And the Plasma concentration (1344 h, SC 12 mg/kg, solution U, 500 mg/mL, 12 mg/kg)?
Answer: The Plasma concentration was 38.5 nM and 22.5 nM.

Question: And the Plasma concentration (1680 h, SC 12 mg/kg, solution T, 400 mg/mL, 12 mg/kg)?
Answer: Its Plasma concentration is 34.6 nM and 17.3 nM.

Question: And the Plasma concentration (1680 h, SC 12 mg/kg, solution U, 500 mg/mL, 12 mg/kg)?
Answer: Its Plasma concentration is 25.7 nM and 27.7 nM and 10.5 nM.

Question: What about the Plasma concentration (2016 h, SC 12 mg/kg, solution T, 400 mg/mL, 12 mg/kg) of the same molecule?
Answer: Its Plasma concentration is 7.9 nM (2×) and 19.6 nM.

Question: And the Plasma concentration (2016 h, SC 12 mg/kg, solution U, 500 mg/mL, 12 mg/kg)?
Answer: The Plasma concentration was 10.7 nM and 13.8 nM and 6.40 nM.

Question: And the Plasma concentration (2352 h, SC 12 mg/kg, solution T, 400 mg/mL, 12 mg/kg)?
Answer: The Plasma concentration was 7.6 nM and 5.7 nM.

Question: And the Plasma concentration (2352 h, SC 12 mg/kg, solution U, 500 mg/mL, 12 mg/kg)?
Answer: Its Plasma concentration is 8.8 nM and 10.2 nM and 3.45 nM.

Question: And the Plasma concentration (3696 h, SC 6 mg/kg, solution V, 300 mg/mL)?
Answer: The Plasma concentration was “BLQ”.

Question: What about the Plasma concentration (4032 h, SC 6 mg/kg, solution V, 300 mg/mL) of the same molecule?
Answer: The Plasma concentration was “BLQ”.
